Data as given in ChEMBL document CHEMBL3885861, “Open TG-GATES”.

Organism: Rattus norvegicus
Test: Open TG-GATES - Regimen: Single
Format: toxicity, organism-based, Sprague-Dawley
Parameters: regimen Single, gender Male, age 6 weeks
Conditions: in vivo, po, 30 mg/kg, route gavage, dose level Middle; for Bas / Eos / Hb / Ht / Lym / MCH / MCHC / MCV / Mono / Neu / Plat / RBC / Ret / WBC: tissue Blood; for KIDNEY_L / KIDNEY_R / KIDNEY_TOTAL: tissue Kidney; for LIVER: tissue Liver; for A/G / ALP / ALT / AST / BUN / CRE / Ca / Cl / DBIL / GLC / IP / K / LDH / Na / PL / RALB / TBIL / TC / TG / TP / gamma-GTP: tissue Plasma

In the case of Cc1ccc2cc3c(ccc4ccccc43)c3c2c1CC3 [3-METHYLCHOLANTHRENE], the TERMINAL_BW (3 h) was 211.6 g, the Bas (3 h) was 0% and the Eos (3 h) was 0.8%. It also gave a Hb (3 h) of 12.5 g/dL, a Ht (3 h) of 38.3% and a Lym (3 h) of 73.4%. For the same compound, the MCH (3 h) was 20.6 pg, the MCHC (3 h) was 32.6% and the MCV (3 h) was 63.1 fL. For the same compound, the Mono (3 h) was 3.6%, the Neu (3 h) was 21.4% and the Plat (3 h) was 120.7 x10_4/uL. For the same compound, the RBC (3 h) was 607.4 x10_4/ul, the Ret (3 h) was 10.1% and the WBC (3 h) was 93.9 x10_2/uL. The KIDNEY_L (3 h) was 0.9 g, the KIDNEY_R (3 h) was 0.9 g and the KIDNEY_TOTAL (3 h) was 1.8 g. The LIVER (3 h) was 9.5 g, the A/G (3 h) was 1 and the ALP (3 h) was 1634.6 IU/L. The ALT (3 h) was 41.6 IU/L, the AST (3 h) was 76 IU/L and the BUN (3 h) was 12.6 mg/dL. For the same compound, the CRE (3 h) was 0.1 mg/dL, the Ca (3 h) was 10.9 mg/dL and the Cl (3 h) was 103.3 meq/L. The DBIL (3 h) was 0 mg/dL, the GLC (3 h) was 177.4 mg/dL and the IP (3 h) was 8.2 mg/dL. The K (3 h) was 4.2 meq/L, the LDH (3 h) was 224.4 IU/L and the Na (3 h) was 139.9 meq/L. The PL (3 h) was 185.8 mg/dL, the RALB (3 h) was 2.9 g/dL and the TBIL (3 h) was 0.008 mg/dL. For the same compound, the TC (3 h) was 87.2 mg/dL, the TG (3 h) was 201.5 mg/dL and the TP (3 h) was 5.7 g/dL. The gamma-GTP (3 h) was 0.6 IU/L, the TERMINAL_BW (6 h) was 206.2 g and the Bas (6 h) was 0%. The Eos (6 h) was 0%, the Hb (6 h) was 12.9 g/dL and the Ht (6 h) was 39.5%. For the same compound, the Lym (6 h) was 77.6%, the MCH (6 h) was 20.7 pg and the MCHC (6 h) was 32.7%. For the same compound, the MCV (6 h) was 63.5 fL, the Mono (6 h) was 3.6% and the Neu (6 h) was 17.2%. The Plat (6 h) was 124.3 x10_4/uL, the RBC (6 h) was 622.8 x10_4/ul and the Ret (6 h) was 9%. For the same compound, the WBC (6 h) was 124.3 x10_2/uL, the KIDNEY_L (6 h) was 0.9 g and the KIDNEY_R (6 h) was 0.9 g. It also gave a KIDNEY_TOTAL (6 h) of 1.8 g, an LIVER (6 h) of 9 g and an A/G (6 h) of 1. The ALP (6 h) was 1407.6 IU/L, the ALT (6 h) was 35 IU/L and the AST (6 h) was 66 IU/L. For the same compound, the BUN (6 h) was 9 mg/dL, the CRE (6 h) was 0.1 mg/dL and the Ca (6 h) was 10.7 mg/dL. It also gave a Cl (6 h) of 104.4 meq/L, a DBIL (6 h) of 0 mg/dL and a GLC (6 h) of 169 mg/dL. The IP (6 h) was 8.9 mg/dL, the K (6 h) was 4.3 meq/L and the LDH (6 h) was 174.6 IU/L. For the same compound, the Na (6 h) was 140.3 meq/L, the PL (6 h) was 158.2 mg/dL and the RALB (6 h) was 2.9 g/dL. For the same compound, the TBIL (6 h) was 0.008 mg/dL, the TC (6 h) was 80.8 mg/dL and the TG (6 h) was 101.9 mg/dL. For the same compound, the TP (6 h) was 5.7 g/dL, the gamma-GTP (6 h) was 0.7 IU/L and the TERMINAL_BW (9 h) was 206.5 g. The Bas (9 h) was 0%, the Eos (9 h) was 0.6% and the Hb (9 h) was 12.7 g/dL. It also gave a Ht (9 h) of 39.4%, a Lym (9 h) of 73.2% and an MCH (9 h) of 20.7 pg. It also gave an MCHC (9 h) of 32.2%, an MCV (9 h) of 64.3 fL and a Mono (9 h) of 3.6%. The Neu (9 h) was 21.6%, the Plat (9 h) was 127.5 x10_4/uL and the RBC (9 h) was 612.8 x10_4/ul. The Ret (9 h) was 9.1%, the WBC (9 h) was 119.4 x10_2/uL and the KIDNEY_L (9 h) was 0.9 g. For the same compound, the KIDNEY_R (9 h) was 0.9 g, the KIDNEY_TOTAL (9 h) was 1.8 g and the LIVER (9 h) was 8.6 g. The A/G (9 h) was 1, the ALP (9 h) was 1625.8 IU/L and the ALT (9 h) was 34.6 IU/L. The AST (9 h) was 64.2 IU/L, the BUN (9 h) was 10.4 mg/dL and the CRE (9 h) was 0.1 mg/dL. For the same compound, the Ca (9 h) was 10.5 mg/dL, the Cl (9 h) was 103.9 meq/L and the DBIL (9 h) was 0.002 mg/dL. For the same compound, the GLC (9 h) was 178.4 mg/dL, the IP (9 h) was 10.2 mg/dL and the K (9 h) was 4.5 meq/L. For the same compound, the LDH (9 h) was 153.6 IU/L, the Na (9 h) was 141.7 meq/L and the PL (9 h) was 160 mg/dL. The RALB (9 h) was 2.8 g/dL, the TBIL (9 h) was 0.004 mg/dL and the TC (9 h) was 84 mg/dL. For the same compound, the TG (9 h) was 109.2 mg/dL, the TP (9 h) was 5.6 g/dL and the gamma-GTP (9 h) was 0.8 IU/L. The TERMINAL_BW (24 h) was 216.2 g, the Bas (24 h) was 0% and the Eos (24 h) was 0.2%. The Hb (24 h) was 12.6 g/dL, the Ht (24 h) was 38.1% and the Lym (24 h) was 80.6%. It also gave an MCH (24 h) of 20.6 pg, an MCHC (24 h) of 32.9% and an MCV (24 h) of 62.6 fL. The Mono (24 h) was 3.8%, the Neu (24 h) was 14.2% and the Plat (24 h) was 127.8 x10_4/uL. For the same compound, the RBC (24 h) was 608 x10_4/ul, the Ret (24 h) was 8% and the WBC (24 h) was 107.4 x10_2/uL. For the same compound, the KIDNEY_L (24 h) was 0.9 g, the KIDNEY_R (24 h) was 0.9 g and the KIDNEY_TOTAL (24 h) was 1.9 g. The LIVER (24 h) was 11 g, the A/G (24 h) was 1 and the ALP (24 h) was 2072.4 IU/L. For the same compound, the ALT (24 h) was 41.2 IU/L, the AST (24 h) was 77.2 IU/L and the BUN (24 h) was 13.7 mg/dL. For the same compound, the CRE (24 h) was 0.1 mg/dL, the Ca (24 h) was 10.9 mg/dL and the Cl (24 h) was 103.4 meq/L. The DBIL (24 h) was 0 mg/dL, the GLC (24 h) was 173.8 mg/dL and the IP (24 h) was 7.1 mg/dL. For the same compound, the K (24 h) was 4.7 meq/L, the LDH (24 h) was 281.4 IU/L and the Na (24 h) was 141.5 meq/L. For the same compound, the PL (24 h) was 165.2 mg/dL, the RALB (24 h) was 2.8 g/dL and the TBIL (24 h) was 0.004 mg/dL. For the same compound, the TC (24 h) was 82.6 mg/dL, the TG (24 h) was 152.7 mg/dL and the TP (24 h) was 5.5 g/dL. It also gave a gamma-GTP (24 h) of 0.9 IU/L.
